The results in this text go back to patent US20060141496A1, “Method of screening substance interacting with ABC protein” (priority 2003, published 2006).

T1 sequence (P08183 whole entry): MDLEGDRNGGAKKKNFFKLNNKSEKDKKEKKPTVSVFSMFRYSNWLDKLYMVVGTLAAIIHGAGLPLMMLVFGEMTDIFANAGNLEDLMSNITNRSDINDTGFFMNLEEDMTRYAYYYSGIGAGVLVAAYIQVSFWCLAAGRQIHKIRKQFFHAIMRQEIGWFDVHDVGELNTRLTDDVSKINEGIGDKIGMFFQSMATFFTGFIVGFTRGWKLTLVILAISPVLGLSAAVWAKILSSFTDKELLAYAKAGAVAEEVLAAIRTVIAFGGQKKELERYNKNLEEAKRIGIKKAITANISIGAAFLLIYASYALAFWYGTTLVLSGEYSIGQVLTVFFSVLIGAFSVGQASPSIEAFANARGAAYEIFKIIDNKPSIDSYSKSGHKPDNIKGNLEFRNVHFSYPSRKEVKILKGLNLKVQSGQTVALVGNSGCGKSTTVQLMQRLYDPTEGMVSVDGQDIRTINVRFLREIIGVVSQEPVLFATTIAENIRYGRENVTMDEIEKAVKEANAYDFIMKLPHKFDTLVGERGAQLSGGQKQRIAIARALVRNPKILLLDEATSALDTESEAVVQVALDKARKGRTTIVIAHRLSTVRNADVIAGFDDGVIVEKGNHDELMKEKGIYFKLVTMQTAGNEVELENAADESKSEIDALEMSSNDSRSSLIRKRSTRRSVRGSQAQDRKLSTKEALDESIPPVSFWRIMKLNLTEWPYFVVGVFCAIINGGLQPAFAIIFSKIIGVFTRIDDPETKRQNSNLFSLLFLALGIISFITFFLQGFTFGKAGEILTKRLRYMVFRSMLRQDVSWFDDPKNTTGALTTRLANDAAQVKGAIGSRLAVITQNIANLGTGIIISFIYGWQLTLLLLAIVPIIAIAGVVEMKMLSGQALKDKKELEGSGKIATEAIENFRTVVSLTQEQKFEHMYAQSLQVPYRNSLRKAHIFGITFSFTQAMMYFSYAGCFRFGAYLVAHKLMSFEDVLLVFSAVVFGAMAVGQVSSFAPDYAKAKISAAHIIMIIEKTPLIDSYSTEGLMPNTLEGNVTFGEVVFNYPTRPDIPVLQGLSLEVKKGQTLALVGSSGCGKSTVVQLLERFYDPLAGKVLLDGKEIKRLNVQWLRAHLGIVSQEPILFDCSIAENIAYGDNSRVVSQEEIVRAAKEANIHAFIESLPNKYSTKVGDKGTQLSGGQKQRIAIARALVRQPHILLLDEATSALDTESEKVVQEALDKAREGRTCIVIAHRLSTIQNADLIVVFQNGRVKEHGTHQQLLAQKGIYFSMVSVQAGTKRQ

The first series has as its target T1, human P-glycoprotein (Pgp or MDR 1) expressing membrane (Homo sapiens, UniProt P08183).
T1 construct: purchased Daiichi Pure Chemicals Co. No. 453228; host or cells: Sf9 insect cell membrane
Kind of series: [3H] ADP binding amount by vanadate method, suction cleaning on 96-well glass filter, P-glycoprotein-expressing membrane. The following applies: substrate 0.05 mM; reaction time 5 minutes; 37° C.; background of control membrane subtracted; FIG. 4. The format is biochemical.
For the compound `Nc1nc2ncc(CNc3ccc(C(=O)N[C@@H](CCC(=O)O)C(=O)O)cc3)nc2c(=O)[nH]1` [Folate], the “[3H] ADP binding activity compared to P-glycoprotein-expressing membrane without substrate” value was “significant increase”.

For `O=C1OC(c2ccc(O)c(S(=O)(=O)O)c2)(c2ccc(O)c(S(=O)(=O)O)c2)c2c(Br)c(Br)c(Br)c(Br)c21` [Bromosulfalein], the “[3H] ADP binding activity compared to P-glycoprotein-expressing membrane without substrate” value is on record as “lowered significantly”.

As to `CC[C@]1(O)C[C@H]2CN(CCc3c([nH]c4ccccc34)[C@@](C(=O)OC)(c3cc4c(cc3OC)N(C=O)[C@H]3[C@@](O)(C(=O)OC)[C@H](OC(C)=O)[C@]5(CC)C=CCN6CC[C@]43[C@@H]65)C2)C1` [Vincristine], the “[3H] ADP binding activity compared to P-glycoprotein-expressing membrane without substrate” value is listed as “significant increase”.

In the case of `COc1cccc2c1C(=O)c1c(O)c3c(c(O)c1C2=O)C[C@@](O)(C(=O)CO)C[C@@H]3O[C@H]1C[C@H](N)[C@H](O)[C@H](C)O1` [Doxorubicin], the “[3H] ADP binding activity compared to P-glycoprotein-expressing membrane without substrate” value is recorded as “significant increase”.

For `COc1cccc2c1C(=O)c1c(O)c3c(c(O)c1C2=O)C[C@@](O)(C(C)=O)C[C@@H]3O[C@H]1C[C@H](N)[C@H](O)[C@H](C)O1` [Daunorubicin], the “[3H] ADP binding activity compared to P-glycoprotein-expressing membrane without substrate” value is recorded as “significant increase”.

With `CC[C@]1(O)C[C@@H]2CN(CCc3c([nH]c4ccccc34)[C@@](C(=O)OC)(c3cc4c(cc3OC)N(C)[C@H]3[C@@](O)(C(=O)OC)[C@H](OC(C)=O)[C@]5(CC)C=CCN6CC[C@]43[C@@H]65)C2)C1` [Vinbrastine], the “[3H] ADP binding activity compared to P-glycoprotein-expressing membrane without substrate” value is listed as “significant increase”.

`CN(Cc1cnc2nc(N)nc(N)c2n1)c1ccc(C(=O)N[C@@H](CCC(=O)O)C(=O)O)cc1` [Methotrexate]: the “[3H] ADP binding activity compared to P-glycoprotein-expressing membrane without substrate” value is recorded as “significant increase”.

In the next series the target is T2, human MRP2 (Homo sapiens, UniProt Q92887).
T2 construct: made in house; host or cells: Sf9 insect cells (baculovirus, pFASTBac1)
T2 sequence (Q92887 whole entry): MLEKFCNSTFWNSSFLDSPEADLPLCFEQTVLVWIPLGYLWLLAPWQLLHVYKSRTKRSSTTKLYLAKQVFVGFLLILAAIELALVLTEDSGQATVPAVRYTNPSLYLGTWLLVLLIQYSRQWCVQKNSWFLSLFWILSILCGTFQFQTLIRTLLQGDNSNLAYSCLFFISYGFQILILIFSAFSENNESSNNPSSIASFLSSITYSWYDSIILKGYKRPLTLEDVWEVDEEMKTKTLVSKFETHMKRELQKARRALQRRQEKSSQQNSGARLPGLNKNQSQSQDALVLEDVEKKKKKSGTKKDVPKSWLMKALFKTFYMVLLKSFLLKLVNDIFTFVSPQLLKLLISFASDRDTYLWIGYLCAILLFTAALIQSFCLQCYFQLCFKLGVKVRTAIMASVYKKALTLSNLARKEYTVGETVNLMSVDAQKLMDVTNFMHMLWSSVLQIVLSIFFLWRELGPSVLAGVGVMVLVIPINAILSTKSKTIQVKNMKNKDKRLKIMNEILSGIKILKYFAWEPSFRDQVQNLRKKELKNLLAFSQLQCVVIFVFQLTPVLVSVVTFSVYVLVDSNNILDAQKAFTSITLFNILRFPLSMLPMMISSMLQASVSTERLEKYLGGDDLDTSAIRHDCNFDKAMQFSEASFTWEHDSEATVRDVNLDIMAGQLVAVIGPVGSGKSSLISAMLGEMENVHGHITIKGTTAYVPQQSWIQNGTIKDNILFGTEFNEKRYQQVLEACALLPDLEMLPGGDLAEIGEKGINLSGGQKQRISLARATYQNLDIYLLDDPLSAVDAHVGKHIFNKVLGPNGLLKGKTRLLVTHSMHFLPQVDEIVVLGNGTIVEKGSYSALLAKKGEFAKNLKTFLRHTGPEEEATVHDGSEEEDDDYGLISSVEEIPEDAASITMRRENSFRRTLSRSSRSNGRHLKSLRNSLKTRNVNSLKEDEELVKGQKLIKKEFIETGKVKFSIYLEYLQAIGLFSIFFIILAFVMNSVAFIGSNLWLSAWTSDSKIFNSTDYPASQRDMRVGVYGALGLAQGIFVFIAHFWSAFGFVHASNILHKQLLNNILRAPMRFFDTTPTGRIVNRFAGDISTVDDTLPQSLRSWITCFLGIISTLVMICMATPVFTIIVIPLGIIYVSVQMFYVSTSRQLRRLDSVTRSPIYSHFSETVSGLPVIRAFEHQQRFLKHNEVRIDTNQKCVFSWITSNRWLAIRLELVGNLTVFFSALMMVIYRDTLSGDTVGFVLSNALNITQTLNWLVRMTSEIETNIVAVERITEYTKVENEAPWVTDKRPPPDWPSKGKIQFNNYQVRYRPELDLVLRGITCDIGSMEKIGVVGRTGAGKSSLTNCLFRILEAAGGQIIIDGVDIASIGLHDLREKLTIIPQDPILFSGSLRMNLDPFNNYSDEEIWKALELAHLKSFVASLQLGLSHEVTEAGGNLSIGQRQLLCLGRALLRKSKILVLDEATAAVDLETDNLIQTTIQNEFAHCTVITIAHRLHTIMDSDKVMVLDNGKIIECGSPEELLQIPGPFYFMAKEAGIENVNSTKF
Kind of series: [3H] ADP binding amount by vanadate method, human MRP2-expressing Sf9 membrane. The format is biochemical. The following applies: substrate 0.1 mM; reaction time 5 minutes; 37° C.; FIG. 6.
With `O=C1OC(c2ccc(O)c(S(=O)(=O)O)c2)(c2ccc(O)c(S(=O)(=O)O)c2)c2c(Br)c(Br)c(Br)c(Br)c21` [Bromosulfalein], the “[3H] ADP binding activity compared to MRP2-expressing membranes without substrate” value was “increase of significant [^3H] ADP binding activity”.

For the compound “β-estradiol-17-(β-D-glucuronide) [β-estradiol-17 (β-D-glucuronide)]”, the “[3H] ADP binding activity compared to MRP2-expressing membranes without substrate” value is “increase of significant [^3H] ADP binding activity”.
